Reference: PubChem BioAssay AID1963870 (Molecular Pharmacology Branch, DTP, NCI, 2024)

Tested on: 292921-168-R-J2-PDC KRAS tumor spheroid viability
Assay: Anticancer human tumor 292921-168-R-J2-PDC patient-derived pancreatic carcinoma cell line growth inhibition [KRAS2]
Settings: spheroids with HUVEC and MSC; for IC50: curve of first compound; for viability, T/C: stronger effect = lower value
Summary of the method: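 KRAS-mutant tumor cells were grown as spheroids with HUVEC endothelial cells and human MSCs as stroma. Targeted agents were tested alone and with KRAS pathway inhibitors. Doses started at or near clinical Cmax, or 10 microM, descending half-log.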

[1] = second compound 0.1 µM, first compound 0.01 µM
[2] = second compound 0.1 µM, first compound 0.0316 µM
[3] = second compound 0.1 µM, first compound 0.1 µM
[4] = second compound 0.316 µM, first compound 0.01 µM
[5] = second compound 0.316 µM, first compound 0.0316 µM
[6] = second compound 0.316 µM, first compound 0.1 µM
[7] = second compound 1 µM, first compound 0.01 µM
[8] = second compound 1 µM, first compound 0.0316 µM
[9] = second compound 1 µM, first compound 0.1 µM
[10] = second compound 3.16 µM, first compound 0.01 µM
[11] = second compound 3.16 µM, first compound 0.0316 µM
[12] = second compound 3.16 µM, first compound 0.1 µM
[13] = second compound 10 µM, first compound 0.01 µM
[14] = second compound 10 µM, first compound 0.0316 µM
[15] = second compound 10 µM, first compound 0.1 µM
[16] = second compound 0.1 µM, first compound 0.316 µM
[17] = second compound 0.1 µM, first compound 1 µM
[18] = second compound 0.1 µM, first compound 3.16 µM
[19] = second compound 0.316 µM, first compound 0.316 µM
[20] = second compound 0.316 µM, first compound 1 µM
[21] = second compound 0.316 µM, first compound 3.16 µM
[22] = second compound 1 µM, first compound 0.316 µM
[23] = second compound 1 µM, first compound 1 µM
[24] = second compound 1 µM, first compound 3.16 µM
[25] = second compound 3.16 µM, first compound 0.316 µM
[26] = second compound 3.16 µM, first compound 1 µM
[27] = second compound 3.16 µM, first compound 3.16 µM
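Also: drug exposure lasted seven days after spheroids formed for three days.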
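For viability, T/C in this document: percent of DMSO vehicle control viability which is 100%.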

## CN(C)C/C=C/C(=O)Nc1cc2c(Nc3ccc(F)c(Cl)c3)ncnc2cc1O[C@H]1CCOC1 + C=CC(=O)N1CCN(c2nc(=O)n(-c3c(C)ccnc3C(C)C)c3nc(-c4c(O)cccc4F)c(F)cc23)C(C)C1
Second compound 0.1 µM
  IC50: > 100 nM
Second compound 0.316 µM
  IC50: > 100 nM
Second compound 1 µM
  IC50: > 100 nM
Second compound 3.16 µM
  IC50: > 100 nM
Second compound 10 µM
  IC50: < 0.316 nM
Second compound 0.1 µM, first compound 0.000316 µM
  viability, T/C: 119%
Second compound 0.1 µM, first compound 0.001 µM
  viability, T/C: 110%
Second compound 0.1 µM, first compound 0.00316 µM
  viability, T/C: 94%
[1]
  viability, T/C: 86.2%
[2]
  viability, T/C: 95.3%
[3]
  viability, T/C: 76.5%
Second compound 0.316 µM, first compound 0.000316 µM
  viability, T/C: 118%
Second compound 0.316 µM, first compound 0.001 µM
  viability, T/C: 114%
Second compound 0.316 µM, first compound 0.00316 µM
  viability, T/C: 104%
[4]
  viability, T/C: 104%
[5]
  viability, T/C: 96.4%
[6]
  viability, T/C: 89.4%
Second compound 1 µM, first compound 0.000316 µM
  viability, T/C: 117%
Second compound 1 µM, first compound 0.001 µM
  viability, T/C: 107%
Second compound 1 µM, first compound 0.00316 µM
  viability, T/C: 106%
[7]
  viability, T/C: 90.7%
[8]
  viability, T/C: 101%
[9]
  viability, T/C: 87.2%
Second compound 3.16 µM, first compound 0.000316 µM
  viability, T/C: 71.7%
Second compound 3.16 µM, first compound 0.001 µM
  viability, T/C: 67%
Second compound 3.16 µM, first compound 0.00316 µM
  viability, T/C: 66.6%
[10]
  viability, T/C: 71.9%
[11]
  viability, T/C: 68.4%
[12]
  viability, T/C: 53.5%
Second compound 10 µM, first compound 0.000316 µM
  viability, T/C: 29.3%
Second compound 10 µM, first compound 0.001 µM
  viability, T/C: 24.5%
Second compound 10 µM, first compound 0.00316 µM
  viability, T/C: 22.8%
[13]
  viability, T/C: 23%
[14]
  viability, T/C: 20.9%
[15]
  viability, T/C: 19.2%

## CC1COCCN1c1cc(-c2ccnn2C)c2ccnc(-c3ccn[nH]3)c2n1 (stereo not given) + COc1cc2nc(C)nc(NC(C)c3cc(N)cc(C(F)(F)F)c3)c2cc1OC1CCOC1
Second compound 0.1 µM
  IC50: < 10 nM
Second compound 0.316 µM
  IC50: < 10 nM
Second compound 1 µM
  IC50: < 10 nM
Second compound 3.16 µM
  IC50: < 10 nM
Second compound 10 µM
  IC50: < 10 nM
[1]
  viability, T/C: 30.3%
[2]
  viability, T/C: 14.4%
[3]
  viability, T/C: 11.1%
[16]
  viability, T/C: 10.6%
[17]
  viability, T/C: 12.1%
[18]
  viability, T/C: 14.1%
[4]
  viability, T/C: 25.2%
[5]
  viability, T/C: 12.9%
[6]
  viability, T/C: 10.1%
[19]
  viability, T/C: 9.13%
[20]
  viability, T/C: 10.8%
[21]
  viability, T/C: 12.5%
[7]
  viability, T/C: 25.6%
[8]
  viability, T/C: 11.6%
[9]
  viability, T/C: 9.3%
[22]
  viability, T/C: 8.99%
[23]
  viability, T/C: 11.2%
[24]
  viability, T/C: 13.2%
[10]
  viability, T/C: 19.4%
[11]
  viability, T/C: 12.1%
[12]
  viability, T/C: 9.36%
[25]
  viability, T/C: 8.32%
[26]
  viability, T/C: 10.4%
[27]
  viability, T/C: 11.8%
[13]
  viability, T/C: 12.9%
[14]
  viability, T/C: 12.5%
[15]
  viability, T/C: 9.42%
Second compound 10 µM, first compound 0.316 µM
  viability, T/C: 8.21%
Second compound 10 µM, first compound 1 µM
  viability, T/C: 8.78%
Second compound 10 µM, first compound 3.16 µM
  viability, T/C: 7.99%

## CC1(C)CCC(CN2CCN(c3ccc(C(=O)NS(=O)(=O)c4ccc(NCC5CCOCC5)c([N+](=O)[O-])c4)c(Oc4cnc5[nH]ccc5c4)c3)CC2)=C(c2ccc(Cl)cc2)C1 + C=CC(=O)N1CCN(c2nc(OCC3CCCN3C)nc3c2CCN(c2cccc4cccc(C)c24)C3)CC1CC#N
Second compound 0.0316 µM
  IC50: 2040 nM
Second compound 0.1 µM
  IC50: 2100 nM
Second compound 0.316 µM
  IC50: 1810 nM
Second compound 1 µM
  IC50: 430 nM
Second compound 3.16 µM
  IC50: < 31.6 nM
Second compound 0.0316 µM, first compound 0.0316 µM
  viability, T/C: 99.8%
Second compound 0.0316 µM, first compound 0.1 µM
  viability, T/C: 101%
Second compound 0.0316 µM, first compound 0.316 µM
  viability, T/C: 96.1%
Second compound 0.0316 µM, first compound 1 µM
  viability, T/C: 92.5%
Second compound 0.0316 µM, first compound 3.16 µM
  viability, T/C: 23.8%
Second compound 0.0316 µM, first compound 10 µM
  viability, T/C: 4.26%
[2]
  viability, T/C: 98.1%
[3]
  viability, T/C: 103%
[16]
  viability, T/C: 100%
[17]
  viability, T/C: 96.1%
[18]
  viability, T/C: 24.7%
Second compound 0.1 µM, first compound 10 µM
  viability, T/C: 4.98%
[5]
  viability, T/C: 88.2%
[6]
  viability, T/C: 98.4%
[19]
  viability, T/C: 83.2%
[20]
  viability, T/C: 90.2%
[21]
  viability, T/C: 12.6%
Second compound 0.316 µM, first compound 10 µM
  viability, T/C: 4.29%
[8]
  viability, T/C: 58%
[9]
  viability, T/C: 59.7%
[22]
  viability, T/C: 52%
[23]
  viability, T/C: 35.3%
[24]
  viability, T/C: 2.72%
Second compound 1 µM, first compound 10 µM
  viability, T/C: 2.98%
[11]
  viability, T/C: 0.13%
[12]
  viability, T/C: 0.2%
[25]
  viability, T/C: 0.14%
[26]
  viability, T/C: 0.12%
[27]
  viability, T/C: 0.37%
Second compound 3.16 µM, first compound 10 µM
  viability, T/C: 0.26%
